“Also recorded” adds a separate entry of the source.
What was measured:
[1] = tested on: chronic lymphocytic leukemia cells; assay: Chemokinesis: migration of chronic lymphocytic leukemia cells through a membrane, no etodolac or chemokine in lower well; assay type: cell-based, human; details: overnight incubation at 200 μmol concentration, versus cells without etodolac; FIG. 1
Description: Cell migration was measured in a 24-well modified Boyden chamber (Transwell, Corning-Costar, N.Y.). The recombinant human IP-10 chemokine (R&D Systems, McKinley Place, Nebr.) was diluted in RPMI-1640 medium at 200 ng/ml, and used to evaluate the chemotactic properties of lymphocytes from B-CLL patients. Polycarbonate membranes with pore size of 3 μm were used. A total of […] of chemokines or control medium was added to the bottom wells, and […] of 2 to 5.0×10^6 cells/ml cells resuspended in RPMI-1640 were added to the top wells. […] The membranes were then removed, and the cells present on the bottom well were quantified by flow cytometry. For cell quantification, a fixed acquisition time of 30 seconds was used per sample, and beads were run during each experiment to ensure a reproducible acquisition. All assays were performed in triplicate. B-Chronic lymphocytic leukemia (B-CLL) cells were pre-incubated in the presence of various concentrations of etodolac for 16 hours, prior to loading in the upper part of a modified Boyden chamber with pore size of 3 μm. The lower reservoir contained either medium alone, or the CXCR3-binding chemokine IFN-inducible protein 10 (IP-10, 200 ng/ml). After 2 hours of incubation, the cells that traveled through the polycarbonate membrane were enumerated by flow cytometry. […] Control cells were incubated in the same medium without etodolac. The cells were then added to the upper wells of chemotaxis chambers divided by a 5 to 8 micron membrane. No etodolac was present in the lower portion of each well. FIG. 1 provides a graph of the number of chronic lymphocytic leukemia cells crossing through the membranes into the lower well.

[2] = tested on: peripheral blood lymphocytes; assay: Chemokinesis: migration of peripheral blood lymphocytes through a membrane, no etodolac in lower well; assay type: cell-based, human; details: overnight incubation at 250 μM, versus cells without etodolac; FIG. 2
Description: Cell migration was measured in a 24-well modified Boyden chamber (Transwell, Corning-Costar, N.Y.). The recombinant human IP-10 chemokine (R&D Systems, McKinley Place, Nebr.) was diluted in RPMI-1640 medium at 200 ng/ml, and used to evaluate the chemotactic properties of lymphocytes from B-CLL patients. Polycarbonate membranes with pore size of 3 μm were used. A total of […] of chemokines or control medium was added to the bottom wells, and […] of 2 to 5.0×10^6 cells/ml cells resuspended in RPMI-1640 were added to the top wells. […] The membranes were then removed, and the cells present on the bottom well were quantified by flow cytometry. For cell quantification, a fixed acquisition time of 30 seconds was used per sample, and beads were run during each experiment to ensure a reproducible acquisition. All assays were performed in triplicate. Peripheral blood lymphocytes were incubated overnight in medium containing a racemic mixture of etodolac, the R-enantiomer of etodolac or the S-enantiomer of etodolac at 250 μM concentration. Control cells were incubated in the same medium without etodolac. The cells were then added to the upper wells of chemotaxis chambers divided by a 5 to 8 micron membrane. No etodolac was present in the lower portion of each well. FIG. 2 provides a graph of the number of peripheral blood lymphocytes crossing through the membranes into the lower well.

[3] = tested on: peripheral blood leukocytes; assay: Peripheral blood leukocyte counts in normal mice after etodolac by gastric lavage; assay type: in vivo; details: blood at 4 hr, 24 hr, 158 hr and 14 days, FIG. 5
Description: Normal mice were given 25 mg/kg etodolac or 100 mg/kg etodolac by gastric lavage. Control mice received no etodolac. Blood was drawn from each mouse at 4 hr, 24 hr, 158 hr and 14 days after etodolac administration and peripheral blood leukocyte counts were done.

B-CLL cells [4] = assay: Ex vivo viability (erythrosin B) of B-CLL cells isolated from patients before and after etodolac challenge; assay type: in vivo, human; details: for % Increased cell death: after versus before etodolac
Excerpt: Written informed consent was obtained to procure peripheral blood from all patients and with normal healthy volunteers. Patients had to have B-CLL according to National Cancer Institute (NCI) criteria of any Rai stage. Criteria for requiring therapy were as follows: disease-related symptoms, anemia and/or thrombocytopenia, bulky lymphadenopathy, and/or clinically relevant splenomegaly. Mononuclear cells were isolated by gradient centrifugation through Ficoll-Paque. […] At the indicated times, viability assays were performed by erythrosin B dye exclusion. To determine if etodolac could reduce B-CLL survival in vivo, six B-CLL patients were enrolled in a first step challenge assay for etodolac sensitivity. Each patient received one 400 mg etodolac tablet, and a second tablet 12 hours later. B-CLL cells were isolated just before the first tablet, and 12 hours after the second. B-CLL cells recovered from patients were then cultured with 20% autologous plasma and apoptosis rates were measured, either before or after etodolac treatment. […] The five etodolac-sensitive patients were then enrolled in a second-step clinical trial in which they took etodolac for one month (400 mg bid). […] After 72 hour of incubation, viability assays were performed by erythrosin B staining. Numbers indicate the % of viable cells.

[5] = tested on: circulating lymphocyte counts; assay: Clinical trial of etodolac in B-CLL patients: circulating lymphocyte counts, lymphadenopathy; assay type: in vivo, human
Description: To determine if etodolac could reduce B-CLL survival in vivo, six B-CLL patients were enrolled in a first step challenge assay for etodolac sensitivity. Each patient received one 400 mg etodolac tablet, and a second tablet 12 hours later. B-CLL cells were isolated just before the first tablet, and 12 hours after the second. B-CLL cells recovered from patients were then cultured with 20% autologous plasma and apoptosis rates were measured, either before or after etodolac treatment. […] The five etodolac-sensitive patients were then enrolled in a second-step clinical trial in which they took etodolac for one month (400 mg bid).

B-CLL cells [6] = details: for chemotactic response of B-CLL cells to IP-10: overnight incubation at 12.5 μM to 500 μM, B-CLL patients n=4, FIG. 3
[7] = tested on: peripheral blood lymphocytes; details: for number of peripheral blood lymphocytes migrating through the membrane to IP-10: overnight incubation at 0 μM to 500 μM, FIG. 4
[8] = tested on: Chronic lymphocytic leukemia (B-CLL) cells; assay: B-CLL colony morphology, aggregation and viability by light microscopy; assay type: cell-based, human; details: 24 hours
Description: Chronic lymphocytic leukemia (B-CLL) cells were incubated for 24 hr in medium containing the R-enantiomer of etodolac at 0.0 μM, 100 μM and 250 μM. concentrations. The cell morphology was observed under light microscopy. Control cells incubated without etodolac grew in large, flat colonies (FIG. 6A). However, after incubation for 24 hours with either 100 μM or 250 μM.

[9] = tested on: Colon cancer cells (HCT-116); assay: Actin filament staining (phalloidin) and cell shape in colon cancer cells; assay type: cell-based; details: 500 μM, 5 hours; FIG. 7B
Description: Colon cancer cells (HCT-116) were incubated for 5 hours with either no etodolac (control cells) or 500 μM. R-etodolac (test cells). The cells were then fixed and the intracellular actin filaments were stained with phalloidan conjugated to a fluorogenic dye (Alexa-green). The control cells (FIG. 7A) had actin filaments arranged in rigid structures (stress fibers) that confer the “stretched” shape often seen in normal cells.

CCc1cccc2c3c([nH]c12)C(CC)(CC(=O)O)OCC3 (racemic) [etodolac]
number of chronic lymphocytic leukemia cells crossing through the membranes into the lower well [1]: more cells migrated through the membrane | number of peripheral blood lymphocytes crossing through the membranes into the lower well [2]: more cells migrated through the membrane | number of peripheral blood leukocytes ([3]; 25 mg/kg by gastric lavage): reduced | number of peripheral blood leukocytes ([3]; 100 mg/kg by gastric lavage): reduced | % Increased cell death (B-CLL cells [4]; patient #1): 13% | % Increased cell death (B-CLL cells [4]; patient #2): 57% | % Increased cell death (B-CLL cells [4]; patient #3): 69% | % Increased cell death (B-CLL cells [4]; patient #4): 0% | % Increased cell death (B-CLL cells [4]; patient #5): 34% | % Increased cell death (B-CLL cells [4]; patient #6): 41% | patients whose cells displayed more ex vivo spontaneous apoptosis after in vivo etodolac challenge than before (B-CLL cells [4]; six B-CLL patients, two 400 mg tablets 12 hours apart): 5 out of 6 | changes in lymphadenopathy ([5]; B-CLL patients on etodolac therapy): did not have clinically obvious changes in lymphadenopathy | B-CLL counts when etodolac treatment was interrupted ([5]; after one month of 400 mg bid): rebounded to pre-treatment levels | drop of circulating lymphocyte counts ([5]; two retreated B-CLL patients, over one month, results not shown): ~50% | expression of the CXCR receptor, as assessed by antibody staining (B-CLL cells [6]; B-CLL cells, data not shown): not due to increased expression of the CXCR receptor | concentration at which chemotaxis of B-CLL cells decreased, due to a loss of cell viability (B-CLL cells [6]; human, 16 h): ≥ 500 µM | chemotactic response of B-CLL cells to IP-10 (B-CLL cells [6]): increased the chemotactic response | etodolac concentration up to which the number of migrating peripheral blood lymphocytes increased ([7]; IP-10 in lower well): 100 µM | concentration at which chemotaxis of peripheral blood lymphocytes decreased, due to a loss of cell viability ([7]; human): ≥ 250 µM | number of peripheral blood lymphocytes migrating through the membrane to IP-10 [7]: increased with etodolac concentration

CCc1cccc2c3c([nH]c12)[C@](CC)(CC(=O)O)OCC3 [S-etodolac]
number of chronic lymphocytic leukemia cells crossing through the membranes into the lower well [1]: more cells migrated through the membrane | number of peripheral blood lymphocytes crossing through the membranes into the lower well [2]: did not induce substantial chemokinesis | chemotactic response of B-CLL cells to IP-10 (B-CLL cells [6]): enhanced B-CLL chemotaxis | number of peripheral blood lymphocytes migrating through the membrane to IP-10 [7]: less cell migration than did the racemic mixture

CCc1cccc2c3c([nH]c12)[C@@](CC)(CC(=O)O)OCC3 [R-etodolac]
number of chronic lymphocytic leukemia cells crossing through the membranes into the lower well [1]: more cells migrated through the membrane | number of peripheral blood lymphocytes crossing through the membranes into the lower well [2]: did not induce substantial chemokinesis | total number of B-CLL cells or their viability ([8]; 100 μM or 250 μM): No effect | B-CLL cell movement and colony morphology ([8]; 100 μM, FIG. 6B): the cells migrated toward each other, the diameter of the colonies was reduced, and multiple layers of cells were present in the colonies | B-CLL cell movement and colony morphology ([8]; 250 μM, FIG. 6C): the cells migrated toward each other and the diameter of the colonies was reduced; also recorded: the cells migrated even more toward each other, the diameter of the colonies was even further reduced and even more layers of cells were present in the colonies | actin filaments and cell shape of HCT-116 cells [9]: no conventional stress fibers are observed and the cells assume a rounded shape | chemotactic response of B-CLL cells to IP-10 (B-CLL cells [6]): enhanced B-CLL chemotaxis | number of peripheral blood lymphocytes migrating through the membrane to IP-10 [7]: less cell migration than did the racemic mixture
